# Assay results reported in patent US10722575B2, “Use of 1,3-diphenylprop-2-en-1-one derivatives for treating liver disorders” (GENFIT, priority 2009, dated 2020).
# What was measured:
# [1] = test system: hApoE2 KI/PPARalpha KO mice; test: hApoE2 KI/PPARalpha KO mice on Western diet, hepatic lipid analysis (liver triglycerides); assay type: in vivo; conditions: 30 mg/kg/day by gavage, 6 weeks, FIG. 4D
# Method: (§1) The compounds of the General Formula (I) were tested in vivo in a high fat diet mice model. Dyslipidemic “humanized” hApoE2 KI deficient for PPARalpha were fed a Western diet and treated during 6 weeks. The compounds of interest, including the Compound 29 of WO 2004/005233 at 30 mg/kg/day and the Compound 1 of WO 2007/147879 at 30 mg/kg/day were orally administrated by gavage. At the end of the protocol, animals were sacrificed, livers were harvested and the hepatic expression of relevant genes implicated in the liver inflammation and the fibrosis processes were evaluated by quantitative RT-PCR. In parallel, liver triglycerides contents were evaluated (Panels A-D). Statistical analysis was performed as indicated for FIG. 1.
# Animals were fed a Western diet (20% saturated fat and 0.2% cholesterol, Harlan Teklad TD88137) during 2 weeks in the first study, that involved the daily administration of Cpd 29 (at 30 mg/kg/day by oral gavage), and during 6 weeks in the second study, that involved the daily administration of Compound 1 of WO 2007147879 (Cpd1, at 30 mg/kg/day by oral gavage). […]
# (§2) In another study, the liver-specific anti-inflammatory and anti-fibrotic properties effects of Cpd 29 and Compound 1 of WO 2007/147879 (Cpd 1) were evaluated in the hApoE2 KI/PPARalpha KO mice that were fed a Western diet and daily treated with the selected compounds during 6 weeks.
# [2] = test system: hApoE2 KI/PPARalpha KO mice; test: hApoE2 KI/PPARalpha KO mice on Western diet, hepatic gene expression by quantitative RT-PCR; assay type: in vivo; conditions: 30 mg/kg/day by gavage, 6 weeks
# Method: as §1
# Animals were fed a Western diet (20% saturated fat and 0.2% cholesterol, Harlan Teklad TD88137) during 2 weeks in the first study, that involved the daily administration of Cpd 29 (at 30 mg/kg/day by oral gavage), and during 6 weeks in the second study, that involved the daily administration of Compound 1 of WO 2007147879 (Cpd1, at 30 mg/kg/day by oral gavage). Control animals were treated with vehicle only (Carboxymethlycellulose 1%+Tween-80 0.1%). Animals had access to food and water ad libitum.
# At the end of the studies, the animals were weighed and sacrificed under anesthesia. Blood was collected from the retro-orbital sinus; plasma was obtained by centrifugation (4 000 rpm, at 4° C. for 15 min) and subsequently frozen and stored at −20° C. Tissues and livers were isolated and snap-frozen in liquid nitrogen and stored at −80° C. for subsequent analysis (gene expression and biochemistry) or fixed in 4% paraformaldehyde for histology.
# Total RNA was isolated from frozen livers using the NucleoSpin® 96 RNA kit (Macherey Nagel), according to the manufacturer's instructions. Reverse transcription was performed on 1 μg of total RNA by action of 1 μl of MMLV-RT enzyme (Invitrogen) during 1 hour at 37° C. in a total volume of 30 μl. The reaction conditions were 1× buffer (Invitrogen), 1.5 mM DTT (Invitrogen), 0.18 mM dNTPs (Promega), 200 ng pdN6 (Amersham), 30U RNase inhibitor (Promega). Quantitative PCR was then carried out using the MyiQ Single-Color Real-Time PCR Detection System (Biorad). Briefly PCR reactions were performed in 96 well plates on 5 μl of diluted reverse transcription mix using the iQ SYBR Green Supermix kit. The reaction conditions were: 25 μl of volume reaction, 3 mM of MgCl2, and 0.5 μl of each reverse and forward primer solutions (10 pMol), Tm of 60° C.
# The quantity of fluorescence emitted is directly proportional to the quantity of complementary DNA present at the start of the reaction and amplified during the PCR. The relative levels of expression were determined using the standard curve for each transcript. The results were then normalized in regard to the signals obtained with the 36B4 control (a reference transcript for hepatic gene expression). The induction factor, i.e. the ratio between the relative signal induced by the compound according to the invention and the average of the values relating to the control group, was then calculated for each sample. The higher this factor, the more the compound promotes target gene expression. The final result is depicted as the average of the induction values in each experimental group.
# as §2
substance,measurement,setting,value
"1-[4-methylthiophenyl]-3-[3,5-dimethyl-4-carboxydimethylmethyloxyphenyl]prop-2-en-1-one [Cpd 29]",triglycerides accumulation in the liver,[1],prevented
same,liver expression of TNFα,[2]; FIG. 4A,inhibited
same,liver expression of TGFβ,[2]; FIG. 4B,inhibited
same,liver expression of collagen,[2]; FIG. 4C,inhibited
